Measurements reported in US20250042974A1, “LIPID MEDIATOR CHAPERONE AND USES THEREOF” (The Children's Medical Center Corporation, priority 2021, published 2025).
Blank lines part the entries; values can stand above or below the compound they belong to.

What was measured:
HUVEC = experiment: TEER analysis of endothelial barrier function; assay type: cell-based, human; conditions: Iloprost 200 nM; HDL-S1P 100 nM S1P; AUY954 1 μM
Method: Transendothelial Electrical Resistance (TEER) was performed on HUVEC as described previously (Swendeman et al, 2017). Essentially, HUVECs were maintained in HUVEC Growth Medium (HGM; M199 medium supplemented with 10% FCS (Corning), 1:100 Pen-Strep (Sigma), 8 mM Glutamine (Sigma), Heparin (Sigma, 100 U, LMW) and Sheep Brain Extract prepared (REF). All cultures were maintained on Fibrobronectin (2 μg/ml) coated plates. For TEER analysis a 96 well ECIS system (96W10idf PET array, Applied BioPhysics) was employed. Wells were coated with Fibronectin (2 μg/ml) resuspended in saline for 30 minutes at room temp. HUVECs were harvested, resuspended in HGM at a cell density of 25-30×10^3 cells/well and allowed to adhere overnight. Prior to analysis, culture media was removed and replaced with M199 media supplemented with Pen-Strep/Glutamine and 1% FCS for 30 minutes. For stimulation studies, either Iloprost (Cayman Biochemicals) or Iloprost loaded onto ApoA1 or ApoA1-ApoM chaperones, or S1P prepared on ApoA1-ApoM or ApoM-Fc chaperones were added to cultures and TEER studies were performed from 3-24 hours.

human platelets = experiment: Human platelet aggregation in vitro (light transmission aggregometry); assay type: cell-based; conditions: SFLLRN peptide-induced, 2-20 nM drug, N=2, read-out: EC50 of inhibition of platelet aggregation
Method: Whole blood samples were drawn from healthy donors in the presence of 10% sodium citrate (Sigma, 5577-50 ml) and were spun at 1000 rpm using Beckman centrifuge (GS-6K) for 20 min. The top Platelet-rich Plasma (PRP) layer was collected resting at a 37° C. water bath for 30 minutes. PRP was diluted with the one-fifth volume of the acid-citrate-dextrose buffer, Prostaglandin E1 (PGE1) was added to a final concentration of 0.15 μM. The mixture was spun in a conical-bottom tube at 2000 g for 10 min, and the platelet pellet was collected and suspended in pre-warmed HEPES-Tyrode-Glucose Buffer (HTG). The platelet concentration was determined and adjusted to ˜2.5×10^5/μL with HTG on a Hematology cell counter System (Drew Scientific, 850FS).
Light Transmission Aggregometry was used to evaluate the platelet response to agonists and antagonists. In a 4-channel aggregometer (Platelet ionized calcium aggregometer, Chronolog Corp Model 660), human platelets were stirred in a cuvette at 37° C. […] Data were analyzed using AGGRO/LINK software package Ver 5.2.5 and Microsoft office professional plus 2013.

NF-κB = experiment: TNFα-induced NF-κB luciferase reporter assay in HMEC; assay type: cell-based, human
Method: TNFα-dependent NF-κB signaling was determined by using an NFκB-Luciferase based reporter assay system (pGL4.32[luc2P/NF-κB-RE/Hygro]; Promega). A stable NFκB reporter cell line in human microvascular endothelial cells (HMEC-1; ATCC) was created. HMEC were maintained in 10% FCS/Pen-Strep MCDB media supplemented with 2 mM L-Glutamine (Sigma), EGF (2 ng/ml; R&D systems) and Hydrocortisone (1 ng/ml; Sigma). […] The 5×10^5 reporter cells were distributed to 12 well plates and allowed to adhere for 24 hours. Media was replaced with MCDB media supplemented with 1% FCS, L-Glutamine. […] Samples were extracted using cell lysis buffers (Promega), luciferin substrate was added and the plates were measured for […] at 470 nm for 8-15 minutes in a SpectraMax L 96-well plate reader (Molecular Devices).

Compound: O=C(O)CCNCc1ccc2sc(-c3ccc(-c4ccccc4)c(C(F)(F)F)c3)cc2c1 [AUY954, reference compound]
endothelial barrier function in combination with Iloprost (HUVEC): additive manner

EC50 (human platelets): ~11 nM
Compound: CC#CCC(C)[C@H](O)/C=C/[C@@H]1[C@H]2C/C(=C/CCCC(=O)O)C[C@H]2C[C@H]1O (stereo partly shown) [Iloprost]

inhibition of TNFα-induced NF-κB activity at higher doses (NF-κB; 100-400 μg/ml, bi-phasic dose-response): not as inhibitory
inhibition of TNFα-induced NF-κB activity (NF-κB; low doses 25-50 μg/ml): ~25%
Compound: ApoA1: Purified Human ApoA1 (Sigma) [reference compound]
